This is an account of results in EP1542016A1, “PUMA, phosphorylated p53 and p38 map kinase as markers for HIV-1-induced apoptosis in circulating T cells of infected patient” (Institut Gustave Roussy, priority 2003, dated 2005).

The experiment concerns Env-elicited syncytia. Format: cell-based. As to conditions: SN50 20 µM, cyclic pifithrin-α 10 µM, added at the beginning of co-culture; Fig. 7D. As to the method: HeLa/U937 cell co-cultures were performed at different ratios (6). U937 or Jurkat cells were cultured with recombinant gp120 protein (500 ng/ml).

Regarding `Cc1ccc(-c2cn3c4c(sc3n2)CCCC4)cc1` [pifithrin-α, cyclic pifithrin-α], the “activation of Bax and Bak” value is reported as “inhibited”.
